The source of these data is patent US10787419B2, “Cannabinoid receptor mediating iminopyrazole compounds” (The United States of America, as represented by the …, priority 2012, dated 2020).

The term Ki denotes a measure of affinity in units of concentration, obtained from inhibition or displacement. Read a high Ki as lower affinity. Broadly, the inhibition is how much of the control response was suppressed.

The target of one data set is CB1 (Mus musculus (Mouse), UniProt P47746). Kind of data set: radioligand displacement assay in mouse brain membranes (Ki CB1). Format: binding. Background: Loss of bound radioactivity is the signal in a displacement assay; it reports binding, not function.
The test system of data set [1] is CCl4-induced liver fibrosis. Kind of data set: CCl4-induced liver fibrosis model in mice. The class given is in vivo. Here is the method:
CCL-induced liver fibrosis was generated by intraperitoneal injection of CCL4 (1 ml/kg, diluted 1:10 corn oil), twice weekly for 8 weeks. […] Data represent mean±SEM from 7-8 mice per group. *P<0.05 relative to control. ^#indicates significant treatment effect (P<0.05) relative to CCl4-treated vehicle group.
Fibrosis results from excessive extracellular matrix deposition by myofibroblasts accompanying chronic inflammation and wound healing, and is a key pathogenic process in many organs, including kidneys, lung, and liver.

The next data set concerns recombinant human AMPK. Kind of data set: recombinant AMPK activity assay. To be noted: rimonabant at 1 μM. The class given is biochemical. The source says:
Guanides and biguanides, such as metformin, are effective as antidiabetic agents linked to their AMPK activating properties (Hardie et al., Chem Biol. 2012, […]; 1222-1236). Guanidine-containing analogs in certain embodiments were screened for activation of recombinant human AMPK, using an assay kit (Cyclex, Nagona, Japan), as illustrated in FIG. 8.
Activators of AMP-activated protein kinase (AMPK), such as guanidines of biguanides such as metformin are useful for the treatment of diabetes owing to their AMPK activating property (Hardie, et al., Chem & Biol 2012, 19(10); 1222-1236). Guanidine analogues of certain embodiments were screened for AMPK activation by using a recombinant AMPK activity assay.

In the next data set the test system is ZDF rats. Kind of data set: Zucker diabetic fatty (ZDF) rat model of type 2 diabetes. Format: in vivo. Conditions: 10 mg/kg/day oral gavage, 7 days.
Another data set relates to DIO mice. Kind of data set: mice with diet-induced obesity (DIO) treated orally for 14 days. The class given is in vivo. Here is the method: Glucose tolerance and insulin sensitivity were determined on the last 2 days of treatment, using i.p. glucose tolerance and insulin sensitivity tests.
Data set [2] in a line: in vivo metabolism, metabolite generation in plasma by LC-MS/MS. To be noted: 1 h after oral 10 mg/kg in mice.
The target of a further data set is iNOS (Mus musculus (Mouse), UniProt P29477). Kind of data set: iNOS activity in lung homogenates from LPS-treated mouse. Format: biochemical.
The nature of data set [3]: tissue levels in brain and plasma after administration to mice. To be noted: 1 hour after 10 mg/kg to mice; indicating good oral bioavailability.
Setting [4] is: 10 mg/kg/day orally for 4 weeks.
Where [5] appears, read: DIO mice, 10 mg/kg/day oral, 14 days.

CB1, sequence (P47746 whole entry): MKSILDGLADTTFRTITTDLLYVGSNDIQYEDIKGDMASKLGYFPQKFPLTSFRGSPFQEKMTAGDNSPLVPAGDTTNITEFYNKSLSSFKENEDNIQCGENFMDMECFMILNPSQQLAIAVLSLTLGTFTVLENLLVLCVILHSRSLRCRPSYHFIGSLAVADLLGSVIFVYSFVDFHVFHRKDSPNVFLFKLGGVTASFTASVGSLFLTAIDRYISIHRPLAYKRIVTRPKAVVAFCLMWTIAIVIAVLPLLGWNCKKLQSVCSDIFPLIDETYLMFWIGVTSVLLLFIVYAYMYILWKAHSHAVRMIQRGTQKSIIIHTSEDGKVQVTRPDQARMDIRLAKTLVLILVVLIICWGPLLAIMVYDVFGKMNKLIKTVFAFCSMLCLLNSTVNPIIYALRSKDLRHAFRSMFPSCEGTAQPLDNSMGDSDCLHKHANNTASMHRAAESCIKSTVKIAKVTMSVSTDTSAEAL
Method for iNOS: Cellular iNOS activity was determined after replacing growth medium with reaction mixtures containing appropriate ligands (100 nM). ^& Mice were treated in vivo with vehicle or LPS (25 mg/kg, ip) and sacrificed 6 h later. Crude homogenate prepared from lung were incubated with the indicated ligands and iNOS activity was determined using a radioactivity-based assay.

Regarding `NN/C(=N\S(=O)(=O)c1ccc(Cl)cc1)N1CC(c2ccccc2)C(c2ccc(Cl)cc2)=N1` (stereo not shown) [Compound 73], the Ki at CB1 (Table 1) and on CB1 (Table 2) was 33 nM each time.

`Cc1c(C(=O)NN2CCCCC2)nn(-c2ccc(Cl)cc2Cl)c1-c1ccc(Cl)cc1` [rimonabant, reference compound]: the “CCl4-induced elevation of iNOS immunostaining” value (“CCl4-induced elevation” for short) in data set [1] (setting [4]) is on record as “not by rimonabant”. In the data set on recombinant human AMPK, the AMPK activity entry was “no effect”.

On to `NC=NC(=NS(=O)(=O)c1ccc(Cl)cc1)N1CC(c2ccccc2)C(c2ccc(Cl)cc2)=N1` (stereo not shown) [Compound 1], for which the affinity at CB1 (Table 2) corresponds to a Ki of 392 nM.

Turning to `CNC(N)=NC(=NS(=O)(=O)c1ccc(Cl)cc1)N1CC(c2ccccc2)C(c2ccc(Cl)cc2)=N1` (stereo not shown) [Compound 45], the inhibition constant Ki at CB1 (Table 2) turned out to be 327 nM.

As to `CC(=N)N/C(=N\S(=O)(=O)c1ccc(Cl)cc1)N1CC(c2ccccc2)C(c2ccc(Cl)cc2)=N1` (racemic) [Compound 2, 3-(4-chlorophenyl)-N′-((4-chlorophenyl)sulfonyl)-N-(1-iminoethyl)-4-phenyl-4,5-dihydro-1H-pyrazole-1-carboximidamine], in the data set on ZDF rats, the blood glucose result is given as “prevented the increase in blood glucose”; the “insulin and c-peptide levels” value is “prevented”. For the same compound, in the data set on DIO mice (setting [5]), the “hepatic TG” value is listed as “reduced”, the hyperinsulinemia entry is reported as “abrogated” and the hyperleptinemia entry is listed as “reduced”. In the data set on DIO mice (DIO mice, 10 mg/kg/day oral, during the first week), the food intake reduction is approximately 20%. The “glucose intolerance and insulin resistance” value with DIO mice (DIO mice, 10 mg/kg/day oral, i.p. glucose tolerance and insulin sensitivity tests, last 2 days) is given as “nearly completely normalized”. Also, the “In vivo Comments” value with DIO mice (mouse, in vivo) is reported as “anti-diabetic anti-obesity”. In addition, in data set [1] (setting [4]), the “CCl4-induced collagen deposition / liver fibrosis by Sirius red and Masson's trichrome staining” value was “more effective than rimonabant”; the “CCl4-induced elevation” value is recorded as “attenuated”; the “α-SMA, Procollagen-1 and Fibronectin-1 mRNA” value is reported as “more effective than rimonabant”. The in vivo metabolism result in data set [2] was “underwent in vivo metabolism to liberate the amidine moiety and a metabolite”. Also, the inhibition at 1 µM at iNOS was approximately 48%.

Turning to `N=C(N/C(=N\S(=O)(=O)c1ccc(Cl)cc1)N1CC(c2ccccc2)C(c2ccc(Cl)cc2)=N1)N1CCCC1` (stereo not shown) [Compound 55], the Ki on CB1 (Table 1) and at CB1 (Table 2) was 241 nM each time.

For the compound `CC(=N)N/C(=N\S(=O)(=O)c1ccc(Cl)cc1)N1C[C@H](c2ccccc2)C(c2ccc(Cl)cc2)=N1` [Compound 2E1], the “plasma levels after oral or i.p. administration” value in data set [3] was “comparable”. Also, in data set [1] (setting [4]), the “CCl4-induced collagen deposition / liver fibrosis by Sirius red and Masson's trichrome staining” value is on record as “more effective than rimonabant”; the “CCl4-induced elevation” value is on record as “dramatically attenuated”. In data set [1] (compared with rimonabant), the “anti-fibrotic efficacy in liver fibrosis” value is “higher anti-fibrotic efficacy than rimonabant”.

On to `N=C(N/C(=N\S(=O)(=O)c1ccc(Cl)cc1)N1CC(c2ccccc2)C(c2ccc(Cl)cc2)=N1)C1CC1` (stereo not shown) [Compound 4], for which the inhibitory constant (Ki) at CB1 (Table 1) and at CB1 (Table 2) was 13 nM throughout.

As for `N=C(N/C(=N\S(=O)(=O)c1ccc(Cl)cc1)N1CC(c2ccccc2)C(c2ccc(Cl)cc2)=N1)c1ccccc1` (stereo not shown) [Compound 8], the Ki on CB1 (Table 1) and at CB1 (Table 2) was 26 nM throughout.

In the case of `N=C(N/C(=N\S(=O)(=O)c1ccc(Cl)cc1)N1CC(c2ccccc2)C(c2ccc(Cl)cc2)=N1)c1ccncc1` (stereo not shown) [Compound 12], the Ki on CB1 (Table 1) and at CB1 (Table 2) was 34 nM in each case.
